Experimental data reported in publication PMC11480411, “Mucosal sugars delineate pyrazine vs pyrazinone autoinducer signaling in Klebsiella oxytoca” (Nature Communications, 2024).

Tests used:
S. enterica Typhimurium = tested on: S. enterica Typhimurium; set-up: method as in PMID 36929450; settings: 100 µM (supra-physiological); cited from earlier work
[1] = tested on: leup operon (leupeptin BGC) promoter in K. oxytoca ATCC 8724; test: GFP-based transcriptional reporter for the leup operon; assay type: cell-based, Klebsiella oxytoca; settings: carbohydrate screen, M9 + casamino acid + 0.4% indicated sugar, 30 °C, 24 h
Excerpt: We previously examined a panel of 84 clinical K. oxytoca isolates (including recently renamed Klebsiella michiganensis isolates) for the presence of either the leup operon or npsB, an NRPS of the tilimycin/tilivalline gene cluster. […] While the roles of tilivalline and tilimycin in hemorrhagic colitis are well studied[8],[9], the operon for leupeptin biosynthesis is “silent” in K. oxytoca under typical laboratory culture conditions (i.e., leupeptin production is undetectable). Therefore, our study commenced by exploring growth conditions required to trigger leupeptin biosynthesis in K. oxytoca. To achieve this, we generated a green fluorescent protein (GFP)-based reporter system to monitor leup transcription in K. oxytoca ATCC 8724 (recently renamed as Klebsiella michiganensis (ATCC 8724), Fig. 1a). We utilized λ-red recombineering techniques[38] to replace the first biosynthetic gene (leupA) of the leupeptin BGC with a GFP-spectinomycin resistance cassette. […] Consequently, conditions that elicit transcription of the leupeptin BGC can be monitored by GFP fluorescence intensity.
(§1) 5 mL of the leupeptin reporter strain was cultured aerobically in 10 g/L of LB (Becton Dickinson), yeast extract, GAM (HiMedia Laboratories), horse liver extract (HiMedia Laboratories), malt extract (VWR), meat extract (HiMedia Laboratories), YPD (Dot Scienticifc), brain heart infusion (Becton Dickinson), porcine mucin (Sigma-Aldrich, M1778), clostridial (Becton Dickinson), TSB (VWR), or casamino acid supplemented (5 g/L, VWR) M9 minimal salts (MP Biomedicals) at 30 °C for 24 h at 250 rpm. Cultures were lysed via sonication, centrifuged, and 150 µL of the supernatants were aliquoted into black well clear bottom 96 well plates. GFP fluorescence measurements were performed on a BioTek Synergy H1 plate reader with an excitation wavelength of 488 nm and an emission wavelength of 525 nm. For the carbohydrate screen, the leupeptin reporter strain was cultured in M9 minimal medium (MPbio) supplemented with casamino acid (5 g/L, VWR) and 0.4% indicated sugar aerobically at 30 °C for 24 h at 250 rpm.

[2] = tested on: wildtype K. oxytoca ATCC 8724; test: Leupeptin detection in culture extracts by HPLC-QTOF-MS; assay type: cell-based, Klebsiella oxytoca; settings: added to cultivation medium
Experimental: as §1
For MS-based determination of leupeptin activation, wildtype K. oxytoca ATCC 8724 was cultured in 5 mL of M9 minimal medium supplemented with 5 g/L casamino acids and 0.4% Neu5Ac. […] To measure the area under the curves for specific molecular features, the exact monoprotonated [M + H]^+ mass was calculated and extracted ion chromatographs (EICs) with a 10-ppm error were constructed. […]

K. oxytoca = test: Culture growth (OD600) with sialic acid supplementation; assay type: cell-based, Klebsiella oxytoca; settings: M9+CAS with sialic acid, peer review file, not added to the study
Experimental: as 2 times the recorded value). Importantly, all cultures in this experiment grew. […]
supplemented cultures. All cultures had reached stationary phase after 24 hours. While Neu5Gc cultures did grow slower than Neu5Ac cultures, the term suppression was incorrect. Therefore, we deleted text around Neu5Gc suppression and have changed line 123 to now read: […]
the SI. The following growth analysis was not added to the study.
2. Fig3 describes the role of PLP-enzyme for the production of pyrazines (features 5-9). From
Fig.3a it is clear that features 5 and 7 are different from 6, 8, and 9. Are there functional differences between these 2 groups of compounds in terms of siderophore production? […]
complementation of the pyr mutant with feature 7 could induce siderophore production (Fig4).
What about the features from the other group (6, 8, and 9)?
To address this comment, we performed RNA-seq analysis feeding compound 6 and looked at regulated genes/operons. Similar to compound 7, compound 6 supplementation increased the […]
a table listing specific genes, is now included in the SI. As such, lines 345-348 now read: […]
compound also differentially regulated the transcriptome (201 genes with Padj < 0.05; abs(log2FC) > 1) and enhanced the transcription of genes related to iron acquisition and iron metabolism (Supplemental Information).”
(also on this page, place not known: value ). PLP -enzyme -9). […]

Row | SMILES | effect on iron acquisition pathways (S. enterica Typhimurium) | GFP fluorescence, GFP Strain + Media ([1]; leup GFP reporter strain) [RFU] | GFP fluorescence, WT + Media ([1]; wildtype K. oxytoca without reporter (background)) [RFU] | induction of leupeptin (1) production [2] | culture growth (K. oxytoca)
1 | Cc1c[nH]c(=O)c(C)n1 [DPO, dimethylpyrazine-2-ol] | downregulated iron acquisition pathways |  |  |  | 
2 | CC(=O)N[C@H]1[C@H]([C@H](O)[C@H](O)CO)OC(O)(C(=O)O)C[C@@H]1O (stereo partly shown) [Neu5Ac, N-acetylneuraminic acid] |  | 85763 | 8846 | robust detection of leupeptin | grew fastest
3 | O=C(CO)N[C@H]1[C@H]([C@H](O)[C@H](O)CO)OC(O)(C(=O)O)C[C@@H]1O (stereo partly shown) [Neu5Gc, N-glycolneuraminic acid] |  |  |  | unable to induce the production of 1 | grew about as fast as non-
